Values joined by “and” are separate entries in the source; they are usually repeats but may differ in a detail not shown here. Equal entries are not always repeated.
Columns and labels:
[1] = test system: 3T3-L1 adipocytes; experiment: Glucose transport analysis in 3T3-L1 adipocytes (2-deoxyglucose uptake), cells not expressing hP2RY1; type: cell-based, murine; conditions: basal glucose transport (no insulin), 2-MeSADP 1 μM for 6 hours, mean of 5 experiments
Experimental: (§1) In some instances another analysis called “glucose transport” was used. This involves over-expressing the gene in either differentiated 3T3-L1 adipocytes or differentiated L6 myotubes and then monitoring the ability of insulin to stimulate glucose transport into these two cell types. A recombinant adenovirus encoding the human gene tagged with a FLAG epitope tag was prepared essentially as described in Zhou et al., Proc. Nat. Acad. Sci. USA. 95:2509-2514 (1998). 3T3-L1 adipocytes or L6 myotubes were infected with recombinant adenovirus expressing the human gene. A virus expressing an irrelevant protein was used as the control. Twenty four hours post infection the cells are stimulated with increasing concentrations of insulin and glucose transport into the cells determined by the counting the accumulation of a radiolabelled glucose analog (2-deoxyglucose) essentially as described in Kotani et al., Mol. Cell. Biol. 18:6971-6982 (1998), Fujishiro et al., J. Biol. Chem. 276:19800-19806 (2001), Ross et al., Biochem. Biophys. Res. Commun. 302:354-358 (2003)

[2] = molecular target: T1, hP2RY1 (Homo sapiens, UniProt P47900); experiment: Glucose transport analysis in 3T3-L1 adipocytes over-expressing hP2RY1 (adenovirus); type: cell-based
T1 construct: expressed in transfected cells; host or cells: differentiated murine 3T3-L1 adipocytes (A2) or differentiated L6 myotubes (A4), infected with recombinant adenovirus
T1 sequence (P47900 whole entry): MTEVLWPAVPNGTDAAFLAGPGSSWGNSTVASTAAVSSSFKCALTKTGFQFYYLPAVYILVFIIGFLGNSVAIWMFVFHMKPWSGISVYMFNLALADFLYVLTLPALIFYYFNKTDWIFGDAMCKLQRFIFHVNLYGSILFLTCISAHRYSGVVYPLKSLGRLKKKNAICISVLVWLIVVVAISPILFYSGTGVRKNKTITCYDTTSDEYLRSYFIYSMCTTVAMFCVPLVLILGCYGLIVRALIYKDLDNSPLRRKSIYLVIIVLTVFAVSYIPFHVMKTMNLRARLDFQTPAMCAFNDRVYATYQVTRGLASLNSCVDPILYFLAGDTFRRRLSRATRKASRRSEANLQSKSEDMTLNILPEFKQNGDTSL
Experimental: as §1

[3] = molecular target: T1, hP2RY1; experiment: Glucose transport analysis in L6 myotubes over-expressing hP2RY1 (adenovirus); type: cell-based
Experimental: as §1

[4] = test system: L6 myotubes; experiment: Glucose transport analysis in L6 myotubes (2-deoxyglucose uptake), cells not expressing hP2RY1; type: cell-based; conditions: basal glucose transport (no insulin), 2-MeSADP 1 μM for 6 hours
Experimental: as §1

CSc1nc(N)c2ncn([C@@H]3O[C@H](COP(=O)(O)OP(=O)(O)O)[C@@H](O)[C@H]3O)c2n1 [2-MeSADP]
Fold Change 1 (Basal plus 2-MeSADP)/(Basal no 2-MeSADP), Mean +/− SEM (n = 5) [1]: 1.07 +/− 0.13
basal glucose transport, result in words ([2]; 3T3-L1 adipocytes with or without hP2RY1): can be stimulated by a P2RY1 agonist but only when the hP2RY1 is expressed in the cells
Fold Change 2 (Basal plus P2RY1 plus 2-MeSADP)/(Basal no P2RY1 no 2-MeSADP), Mean +/− SEM (n = 5) ([2]; basal glucose transport (no insulin), hP2RY1-expressing 3T3-L1 adipocytes, 2-MeSADP 1 μM for 6 hours, mean of 5 experiments): 2.11 +/− 0.34
basal glucose transport, result in words ([3]; L6 myotubes with or without hP2RY1): can be stimulated by a P2RY1 agonist but only when the hP2RY1 is expressed in the cells
Fold Change 2 (Basal plus P2RY1 plus 2-MeSADP)/(Basal no P2RY1 no 2-MeSADP), Mean (n = 2) ([3]; basal glucose transport (no insulin), hP2RY1-expressing L6 myotubes, 2-MeSADP 1 μM for 6 hours, mean of 2 experiments): 1.81
Fold Change 2 (Basal plus P2RY1 plus 2-MeSADP)/(Basal no P2RY1 no 2-MeSADP) ([3]; basal glucose transport (no insulin), hP2RY1-expressing L6 myotubes, 2-MeSADP 1 μM for 6 hours, single experiments): 1.71 and 1.91
Fold Change 1 (Basal plus 2-MeSADP)/(Basal no 2-MeSADP), Mean (n = 2) ([4]; mean of 2 experiments): 0.97
Fold Change 1 (Basal plus 2-MeSADP)/(Basal no 2-MeSADP) ([4]; single experiments): 0.99 and 0.95

Reference: patent publication US20060228706A1, “Methods of diagnosing and treating diabetes and insulin resistance” (Metabolex, Inc., priority 2002, published 2006)
